# In patent publication US7388014B2, “Quinazoline derivatives and therapeutic use thereof” (Rexahn Pharmaceuticals, Inc., priority 2004, dated 2008):
# How the values were obtained:
# Type in all cases: cell-based, Human
# A549 = assay: Cell growth inhibition assay (SRB), A549; settings: A549 (lung), 96 hours
# Text: (§1) Cancer cells used in this study to determine the effect of quinazoline compounds were obtained from the following sources: Human OVCAR-3 (ovary), MCF-7 (breast, hormone-dependent), Hs 578T (breast), MDA-MB-231 (breast), HeLa (cervix), PC3 (prostate), HepG2 (liver), A549 (lung), Caki-1 (kidney), HT-29 (colon), HCT116 (colon) and PANC-1 (pancreas) from the American Type Culture Collection (ATCC) (Manassas, Va.); U251 (brain) from Riken (Japan); MKN-45 (stomach) from DSMZ (Germany); UMRC2 (kidney) and Lox IMVI (melanoma) from the United States National Cancer Institute (Bethesda, Md.). All cell lines except Hs 578T, MDA-MB-231, HCT116, UMRC2, Caki-1 and PANC-1 were grown in RPMI1640 medium (Invitrogen, Carlsbad, Calif.) supplemented with 10% fetal bovine serum (“FBS”), 1 mM sodium pyruvate, 10 mM HEPES and 100 U/ml penicillin and 100 μg/ml streptomycin (“P/S”). Hs 578T, MDA-MB-231, HCT116, UMRC2, Caki-1 and PANC-1 cells were maintained in Dulbecco's modified Eagle's medium (“DMEM”, Invitrogen) supplemented with 10% FBS, P/S, 10 mM HEPES and 2 mM L-glutamine. All cells were incubated at 37° C. under humidified 5% CO2.
# (§2) The growth inhibition of the substituted quinazoline derivative compounds against a variety of human tumor cells was evaluated. The relative importance of particular substituent groups on the compounds was also studied. The substituted quinazoline derivative compounds, prepared as described above, were tested, along with DMSO as a control.
# (§3) The growth inhibition assay of various compounds against 15 human tumor cell lines was performed using the Sulforhodamnine B (“SRB”) method (Skehan et al., J. National Cancer Institute, 82: 1107-1112 (1990)). Briefly, exponentially growing tumor cells were seeded into a 96-well plate at a density of 2-3×10^3 cells/well and treated with quinazoline compounds the next day. Triplicate wells were used for each treatment. The cells were. incubated with the various compounds for 96 hours at 37° C. in a humidified 5% CO2 atmosphere. After 96-hour incubation, cells were fixed with 10% trichloroacetic acid (“TCA”), incubated for 1 hour at 4° C., and washed 3 times with tap water. Subsequently cells were stained with 0.4% sulforhodamine B in 1% acetic acid for 30 minutes, washed 4 times with 1% acetic acid, and air-dried again. After 5 minutes agitation in 10 mM Tris solution, the absorbance of each well was measured at 530 nm using Benchmark Plus Microplate reader (Bio-Rad Laboratories, Hercules, Calif.).
# (§4) To translate the OD530 values into the number of live cells in each well, the OD530 values were compared to those on standard OD530—versus—cell number curves generated for each cell line. The percent survival was calculated using the formula: % Survival=live cell number [test]/live cell number [control]×100
# (§5) The IC50 values were calculated by non-linear regression analysis.
# HepG2 = assay: Cell growth inhibition assay (SRB), HepG2; settings: HepG2 (liver), 96 hours, read-out: Inhibition of cell growth (IC50, μM) HepG 2
# Text: as §1, §2, §3, §4, §5
# MKN-45 = assay: Cell growth inhibition assay (SRB), MKN-45; settings: MKN-45 (stomach), 96 hours
# Text: as §1, §2, §3, §4, §5
# PANC-1 = assay: Cell growth inhibition assay (SRB), PANC-1; settings: PANC-1 (pancreas), 96 hours
# Text: as §1, §2, §3, §4, §5
# HT-29 = assay: Cell growth inhibition assay (SRB), HT-29; settings: HT-29 (colon), 96 hours
# Text: as §1, §2, §3, §4, §5
# PC3 = assay: Cell growth inhibition assay (SRB), PC3; settings: PC3 (prostate), 96 hours
# Text: as §1, §2, §3, §4, §5
# U251 = assay: Cell growth inhibition assay (SRB), U251; settings: U251 (brain), 96 hours
# Text: as §1, §2, §3, §4, §5
# HeLa = assay: Cell growth inhibition assay (SRB), HeLa; settings: HeLa (cervix), 96 hours
# Text: as §1, §2, §3, §4, §5
# Lox IMVI = assay: Cell growth inhibition assay (SRB), Lox IMVI; settings: Lox IMVI (melanoma), 96 hours
# Text: as §1, §2, §3, §4, §5
# OVCAR-3 = assay: Cell growth inhibition assay (SRB), OVCAR-3; settings: OVCAR-3 (ovary), 96 hours
# Text: as §1, §2, §3, §4, §5
# MCF-7 = assay: Cell growth inhibition assay (SRB), MCF-7; settings: MCF-7 (breast, hormone-dependent), 96 hours
# Text: as §1, §2, §3, §4, §5
# MDA-MB-231 = assay: Cell growth inhibition assay (SRB), MDA-MB-231; settings: MDA-MB-231 (breast), 96 hours
# Text: as §1, §2, §3, §4, §5
# Hs 578T = assay: Cell growth inhibition assay (SRB), Hs 578T; settings: Hs 578T (breast), 96 hours
# Text: as §1, §2, §3, §4, §5
# UMRC2 = assay: Cell growth inhibition assay (SRB), UMRC2; settings: UMRC2 (kidney), 96 hours
# Text: as §1, §2, §3, §4, §5
# Caki-1 = assay: Cell growth inhibition assay (SRB), Caki-1; settings: Caki-1 (kidney), 96 hours
# Text: as §1, §2, §3, §4, §5
SMILES,IC50 (A549),IC50 (HepG2),IC50 (MKN-45),IC50 (PANC-1),IC50 (HT-29),IC50 (PC3),IC50 (U251),IC50 (HeLa),IC50 (Lox IMVI),IC50 (OVCAR-3),IC50 (MCF-7),IC50 (MDA-MB-231),IC50 (Hs 578T),IC50 (UMRC2),IC50 (Caki-1)
Cn1cnc2cc3ncnc(NCc4cccc(F)c4)c3cc21 [RX-1881],> 3 µM,1.29 µM,> 3 µM,> 3 µM,> 3 µM,> 3 µM,0.91 µM,> 3 µM,> 3 µM,> 3 µM,0.68 µM,> 3 µM,> 3 µM,> 3 µM,2.34 µM
Fc1cccc(CCNc2ncnc3ccccc23)c1 [RX-1195],2.1 µM,1.18 µM,> 3 µM,0.34 µM,2.07 µM,> 3 µM,1.95 µM,> 3 µM,2.16 µM,2.6 µM,1.53 µM,0.46 µM,0.44 µM,0.41 µM,> 3 µM
FC(F)(F)c1ccccc1CNc1ncnc2ccc(I)cc12 [RX-1682],> 3 µM,1.51 µM,> 3 µM,> 3 µM,> 3 µM,> 3 µM,0.53 µM,> 3 µM,> 3 µM,> 3 µM,0.55 µM,> 3 µM,> 3 µM,> 3 µM,> 3 µM
FC(F)(F)c1ccccc1CNc1ncnc2ccc(Br)cc12 [RX-1260],> 3 µM,2.25 µM,> 3 µM,> 3 µM,> 3 µM,> 3 µM,0.69 µM,> 3 µM,> 3 µM,> 3 µM,0.74 µM,> 3 µM,> 3 µM,> 3 µM,> 3 µM
Ic1ccc2ncnc(NCCCCc3ccccc3)c2c1 [RX-1670],> 3 µM,1.51 µM,> 3 µM,> 3 µM,> 3 µM,> 3 µM,0.62 µM,> 3 µM,0.88 µM,> 3 µM,0.43 µM,1.06 µM,1.35 µM,1.53 µM,> 3 µM
Fc1cc(Cl)ccc1Nc1ncnc2ccc(Br)cc12 [RX-1279],2.86 µM,0.75 µM,> 3 µM,> 3 µM,> 3 µM,> 3 µM,2.97 µM,> 3 µM,> 3 µM,> 3 µM,> 3 µM,> 3 µM,> 3 µM,> 3 µM,2.15 µM
Fc1cccc(CCNc2ncnc3ccc(Br)cc23)c1 [RX-1242],2.4 µM,0.9 µM,> 3 µM,> 3 µM,> 3 µM,> 3 µM,0.56 µM,> 3 µM,0.73 µM,> 3 µM,0.58 µM,0.88 µM,1.03 µM,1.29 µM,2.39 µM
Fc1cccc(CCNc2ncnc3ccc(I)cc23)c1 [RX-1668],> 3 µM,0.3 µM,> 3 µM,1.83 µM,> 3 µM,> 3 µM,0.27 µM,> 3 µM,> 3 µM,> 3 µM,0.23 µM,> 3 µM,0.89 µM,1.83 µM,2.93 µM
Ic1ccc2ncnc(NC3CCCCC3)c2c1 [RX-1659],> 3 µM,1 µM,> 3 µM,> 3 µM,> 3 µM,> 3 µM,0.51 µM,> 3 µM,1.95 µM,> 3 µM,0.36 µM,> 3 µM,> 3 µM,> 3 µM,1.71 µM
Brc1ccc2ncnc(NCCCCc3ccccc3)c2c1 [RX-1251],1.92 µM,0.9 µM,> 3 µM,> 3 µM,> 3 µM,> 3 µM,0.42 µM,> 3 µM,0.19 µM,> 3 µM,0.55 µM,0.34 µM,0.43 µM,0.47 µM,1.96 µM
Cn1cnc2cc3ncnc(NCCc4cccc(F)c4)c3cc21 [RX-1894],> 3 µM,0.85 µM,> 3 µM,> 3 µM,1.7 µM,> 3 µM,0.9 µM,> 3 µM,> 3 µM,> 3 µM,1.17 µM,> 3 µM,> 3 µM,> 3 µM,2.33 µM
